This assay relates to Mycobacterium tuberculosis. The assay is described as follows: Antitubercular activity against multi-drug-resistant Mycobacterium tuberculosis M22 assessed as bacterial growth inhibition measured for 9 days. The format is functional. The conditions noted are these: M22, 216 h, time 9 day.

Molecules are shown by their SMILES. Converted amounts (≈) assume the structure as drawn.

The term MIC90 denotes the lowest concentration that inhibits either 90% of growth or 90% of the strains tested, depending on the study. With `O=C(CCc1ccc(O)cc1)c1c(O)cc(O)cc1O` [PHLORETIN], the MIC90 worked out at 182 µM (≈ 49.9 µg/mL).
